# Test results: PubChem BioAssay (NCI)
#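 Five compound concentrations were applied to cells in 96-well plates for 48 hours; endpoints were derived by simple linear interpolation of the resulting dose-response curve. Here, GI50 denotes the concentration required for 50% inhibition of growth. At the TGI there is no net growth.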
# Tested on: 786-0 renal
# Experiment: inhibition of tumour cell growth, NCI panel, 48 h
Structure (SMILES),GI50 [µM],TGI [µM]
CC(=O)Nc1ccc(S(=O)(=O)N2C(=O)CCC2C(=O)Nc2ccc(Br)cc2)cc1 (stereo not drawn),2.2,7.27
CO/N=C(/C)c1cccc(Nc2cc(-n3nnc4ccccc43)nc3ccccc23)c1,45.5,> 100
COc1cc(C(=O)N2CCN(C=O)C2=S)cc(OC)c1OC,12.7,28
Cn1c(I)c(C#CCO[Si](C)(C)C(C)(C)C)c(=O)[nH]c1=O,18.6,33.2
CCCCC#CC1=C(Br)C(=O)OC1,2,5.14
O=C(Nc1ccc(Br)cc1F)c1cc(F)ccc1O,2.41,7.49
CC/C=C\C[C@H](O)C/C=C1/C(=O)C(Cl)=C[C@@H]1C/C=C\CCCC(=O)OC,0.486,1.56
c1ccc(-c2nnc(-c3ccccn3)s2)nc1,> 100,> 100
CN1CCN(C2CCN(C(=O)Nc3cc(Oc4ccc(NC(=O)C5(C(=O)Nc6ccc(F)cc6)CC5)c(F)c4)ccn3)CC2)CC1,1.67,> 10
CCN1CCN(C(=O)[C@@]2(C)CC[C@]3(C)CC[C@]4(C)C(=CC(=O)[C@@H]5[C@@]6(C)CC[C@H](OC7C[C@@H](O)[C@@H](O)C(C)O7)C(C)(C)[C@@H]6CC[C@]54C)[C@@H]3C2)CC1 (stereo partly drawn),0.933,1.82
Nc1nn2cc(F)cnc2c1C(=O)Nc1cncc(F)c1N1CCC(C(=O)N2CCN(C3COC3)CC2)CC1,0.277,> 100

# Tested on: DU-145 prostate
# Experiment: inhibition of tumour cell growth, NCI panel, 48 h
Structure (SMILES),GI50 [µM],TGI [µM]
CC(=O)Nc1ccc(S(=O)(=O)N2C(=O)CCC2C(=O)Nc2ccc(Br)cc2)cc1 (stereo not drawn),3.25,15.8
CO/N=C(/C)c1cccc(Nc2cc(-n3nnc4ccccc43)nc3ccccc23)c1,40.4,> 100
COc1cc(C(=O)N2CCN(C=O)C2=S)cc(OC)c1OC,19.6,56.6
Cn1c(I)c(C#CCO[Si](C)(C)C(C)(C)C)c(=O)[nH]c1=O,15.3,28.6
CCCCC#CC1=C(Br)C(=O)OC1,0.752,2.34
O=C(Nc1ccc(Br)cc1F)c1cc(F)ccc1O,0.698,64.6
CC/C=C\C[C@H](O)C/C=C1/C(=O)C(Cl)=C[C@@H]1C/C=C\CCCC(=O)OC,0.692,2.7
c1ccc(-c2nnc(-c3ccccn3)s2)nc1,> 100,> 100
CN1CCN(C2CCN(C(=O)Nc3cc(Oc4ccc(NC(=O)C5(C(=O)Nc6ccc(F)cc6)CC5)c(F)c4)ccn3)CC2)CC1,1.41,> 10
CCN1CCN(C(=O)[C@@]2(C)CC[C@]3(C)CC[C@]4(C)C(=CC(=O)[C@@H]5[C@@]6(C)CC[C@H](OC7C[C@@H](O)[C@@H](O)C(C)O7)C(C)(C)[C@@H]6CC[C@]54C)[C@@H]3C2)CC1 (stereo partly drawn),8.71,16.3
Nc1nn2cc(F)cnc2c1C(=O)Nc1cncc(F)c1N1CCC(C(=O)N2CCN(C3COC3)CC2)CC1,0.469,> 100

# Tested on: HOP-92 NSCLC
# Experiment: inhibition of tumour cell growth, NCI panel, 48 h
Structure (SMILES),GI50 [µM],TGI [µM]
CC(=O)Nc1ccc(S(=O)(=O)N2C(=O)CCC2C(=O)Nc2ccc(Br)cc2)cc1 (stereo not drawn),1.13,5.25
CO/N=C(/C)c1cccc(Nc2cc(-n3nnc4ccccc43)nc3ccccc23)c1,3.98,37.4
COc1cc(C(=O)N2CCN(C=O)C2=S)cc(OC)c1OC,9.26,26.2
Cn1c(I)c(C#CCO[Si](C)(C)C(C)(C)C)c(=O)[nH]c1=O,2.14,4.67
CCCCC#CC1=C(Br)C(=O)OC1,2.04,18.7
O=C(Nc1ccc(Br)cc1F)c1cc(F)ccc1O,0.192,0.566
CC/C=C\C[C@H](O)C/C=C1/C(=O)C(Cl)=C[C@@H]1C/C=C\CCCC(=O)OC,2.57,5.46
c1ccc(-c2nnc(-c3ccccn3)s2)nc1,7.46,> 100
CN1CCN(C2CCN(C(=O)Nc3cc(Oc4ccc(NC(=O)C5(C(=O)Nc6ccc(F)cc6)CC5)c(F)c4)ccn3)CC2)CC1,0.483,> 2.54
CCN1CCN(C(=O)[C@@]2(C)CC[C@]3(C)CC[C@]4(C)C(=CC(=O)[C@@H]5[C@@]6(C)CC[C@H](OC7C[C@@H](O)[C@@H](O)C(C)O7)C(C)(C)[C@@H]6CC[C@]54C)[C@@H]3C2)CC1 (stereo partly drawn),5.25,12.5
Nc1nn2cc(F)cnc2c1C(=O)Nc1cncc(F)c1N1CCC(C(=O)N2CCN(C3COC3)CC2)CC1,0.653,13

# Tested on: HT29 colon
# Experiment: inhibition of tumour cell growth, NCI panel, 48 h
Structure (SMILES),GI50 [µM],TGI [µM]
CC(=O)Nc1ccc(S(=O)(=O)N2C(=O)CCC2C(=O)Nc2ccc(Br)cc2)cc1 (stereo not drawn),2.76,14.7
CO/N=C(/C)c1cccc(Nc2cc(-n3nnc4ccccc43)nc3ccccc23)c1,11.8,> 100
COc1cc(C(=O)N2CCN(C=O)C2=S)cc(OC)c1OC,26.7,66.4
Cn1c(I)c(C#CCO[Si](C)(C)C(C)(C)C)c(=O)[nH]c1=O,20.9,39.7
CCCCC#CC1=C(Br)C(=O)OC1,2.85,> 22.1
O=C(Nc1ccc(Br)cc1F)c1cc(F)ccc1O,3.19,> 36.7
CC/C=C\C[C@H](O)C/C=C1/C(=O)C(Cl)=C[C@@H]1C/C=C\CCCC(=O)OC,0.406,1.07
c1ccc(-c2nnc(-c3ccccn3)s2)nc1,> 100,> 100
CN1CCN(C2CCN(C(=O)Nc3cc(Oc4ccc(NC(=O)C5(C(=O)Nc6ccc(F)cc6)CC5)c(F)c4)ccn3)CC2)CC1,0.806,> 4.38
CCN1CCN(C(=O)[C@@]2(C)CC[C@]3(C)CC[C@]4(C)C(=CC(=O)[C@@H]5[C@@]6(C)CC[C@H](OC7C[C@@H](O)[C@@H](O)C(C)O7)C(C)(C)[C@@H]6CC[C@]54C)[C@@H]3C2)CC1 (stereo partly drawn),1.08,2.59
Nc1nn2cc(F)cnc2c1C(=O)Nc1cncc(F)c1N1CCC(C(=O)N2CCN(C3COC3)CC2)CC1,0.452,> 100

# Tested on: IGROV1 ovarian
# Experiment: inhibition of tumour cell growth, NCI panel, 48 h
Structure (SMILES),GI50 [µM],TGI [µM]
CC(=O)Nc1ccc(S(=O)(=O)N2C(=O)CCC2C(=O)Nc2ccc(Br)cc2)cc1 (stereo not drawn),2.28,10.9
CO/N=C(/C)c1cccc(Nc2cc(-n3nnc4ccccc43)nc3ccccc23)c1,> 100,> 100
COc1cc(C(=O)N2CCN(C=O)C2=S)cc(OC)c1OC,21.9,57.3
Cn1c(I)c(C#CCO[Si](C)(C)C(C)(C)C)c(=O)[nH]c1=O,17.2,32.7
CCCCC#CC1=C(Br)C(=O)OC1,0.368,3.33
O=C(Nc1ccc(Br)cc1F)c1cc(F)ccc1O,0.37,> 100
CC/C=C\C[C@H](O)C/C=C1/C(=O)C(Cl)=C[C@@H]1C/C=C\CCCC(=O)OC,0.867,3.35
c1ccc(-c2nnc(-c3ccccn3)s2)nc1,27.3,> 100
CN1CCN(C2CCN(C(=O)Nc3cc(Oc4ccc(NC(=O)C5(C(=O)Nc6ccc(F)cc6)CC5)c(F)c4)ccn3)CC2)CC1,1.1,> 10
CCN1CCN(C(=O)[C@@]2(C)CC[C@]3(C)CC[C@]4(C)C(=CC(=O)[C@@H]5[C@@]6(C)CC[C@H](OC7C[C@@H](O)[C@@H](O)C(C)O7)C(C)(C)[C@@H]6CC[C@]54C)[C@@H]3C2)CC1 (stereo partly drawn),1.68,6.39
